Here are results for one molecule from paper PMC10381170, “1,3,4-Oxadiazole and 1,3,4-Thiadiazole Nortopsentin Derivatives against Pancreatic Ductal Adenocarcinoma: Synthesis, Cytotoxic Activity, and Inhibition of CDK1” (Marine Drugs, 2023).

Common to all, as to format: cell-based, human
For one experiment, the system named is CDK1. Kind of experiment: CDK1 ELISA in Suit-2. Conditions: Suit-2, 10 µM, 24 h, vs DMSO control, p < 0.01. The method, then:
The expression of CDK1 was detected and quantified using an Enzyme-Linked Immunosorbent Assay (ELISA, Human cyclin-dependent kinase 1 (CDK1) ELISA Kit, Catalog Number: MBS707090) according to the manufacturer’s protocol and our previous studies. Volumes of 100 µL of the standard and the sample were added for each well, and the plates were incubated for 2 h at 37 °C. Then, the liquid was removed, and 100 µL of biotin-antibody was added to each well; the plates were then incubated for 1 h at 37 °C. The medium was removed, and the plates were washed with wash buffer (200 µL). Subsequently, 100 µL of HRP-avidin was added to each well, and the plates were incubated for 1 h at 37 °C. The washing process was repeated five times. At the end, 90 µL of TMB substrate was added to each well, and the plates were incubated for 30 min at 37 °C in the dark. Finally, 50 µL of stop solution was added to each well. The optical density of each well was determined using a microplate reader set to 450 nm.

A further experiment has as its system Panc-1-GR cells. Kind of experiment: SRB antiproliferative assay, gemcitabine-resistant Panc-1-GR. The procedure:
(§1) The cytotoxic activity of the nortopsentin derivatives 3b, 3e, 4c, 5b, and 6c on pancreatic cancer cells (BxPC-3, Panc-1, Suit-2, Capan-1, PaTu-T, primary PDAC-3 and resistant Panc-1-GR cells) was determined by the sulforhodamine B (SRB) chemosensitivity assay, as described previously. Cells were plated in 96-well flat-bottom plates at final concentrations ranging from 3000–5000 cells/well in 100 µL of medium. After a 24 h pre-incubation period, cells were treated with the compounds at nine screening concentrations (from 0.1 μM to 40 μM) in triplicate and incubated at 37 °C for 72 h. After the treatment, cells were fixed with 25 µL of cold 50% trichloroacetic acid (TCA) for each well and incubated at 4 °C for 1 h. Afterwards, plates were washed five times with demi-water and air-dried overnight. Then, the plates were stained with 50 µL of 0.4% SRB solution in 1% acetic acid for 15 min. The excess stain was rinsed off by placing the plates under running 1% acetic acid and allowed to dry at room temperature overnight. SRB staining was rinsed with 150 µL tris(hydroxymethyl)aminomethane solution pH = 8.8 (TRIS-base), and the optical density (OD) was read at 492 nm. Each assay was performed in triplicate and assays were repeated at least three times. The comparison of the average optical density of the growth in control wells with that in the sample wells allowed the estimation of the percentage of cell growth, using the following equation: % Cell Growth = (mean ODcompound − mean ODday zero plate)/(mean ODcells − mean ODday zero plate) × 100
(§2) The results obtained were adjusted by the day zero plate (wells containing cells growing for only 24 h) and normalized by the control cells (wells with untreated cells) to obtain the rate of viable cells.

Another experiment has as its system Capan-1 cells. Put plainly: SRB antiproliferative assay, Capan-1. The method, then:
as §1, §2

Another experiment has as its system PDAC-3 cells. Put plainly: SRB antiproliferative assay, primary culture PDAC-3. The procedure:
as §1, §2

For another experiment, the system named is BxPC-3 cells. Put plainly: SRB antiproliferative assay, BxPC-3. The method, then:
as §1, §2

Another experiment deals with Suit-2 cells. Kind of experiment: SRB antiproliferative assay, Suit-2. The procedure:
as §1, §2

As to `Cn1cc(-c2nnc(-c3cn(C)c4ncccc34)o2)c2ccccc21` [3b, 1-methyl-3-[5-(1-methyl-1H-indol-3-yl)-1,3,4-oxadiazol-2-yl]-7-azaindole], the “CDK1 expression by ELISA” value with CDK1 is “reduction in CDK1 expression”. The Cell growth percentage in the experiment on Panc-1-GR cells (10 μM, 72 h exposure) was 22.47%; with Capan-1 cells (Capan-1, 10 μM, 72 h exposure) it was 18.33%; in the experiment on PDAC-3 cells (PDAC-3, 10 μM, 72 h exposure), 38.35%; with BxPC-3 cells (BxPC-3, 10 μM, 72 h exposure) it was 11.10%; in the experiment on Suit-2 cells (Suit-2, 10 μM, 72 h exposure) it was 18.34%. For the same molecule, the IC50 with Panc-1-GR cells (Homo sapiens, 72 h, mean ± SEM, read-out: Half-maximal inhibitory concentration (IC50)) is 8 ± 2.8 µM; with Capan-1 cells (Homo sapiens, Capan-1, 72 h, mean ± SEM, read-out: Half-maximal inhibitory concentration (IC50)), 2.6 ± 0.62 µM; with PDAC-3 cells (Homo sapiens, PDAC-3, 72 h, mean ± SEM, read-out: Half-maximal inhibitory concentration (IC50)), 8.1 ± 0.14 µM; in the experiment with BxPC-3 cells (Homo sapiens, BxPC-3, 72 h, mean ± SEM, read-out: Half-maximal inhibitory concentration (IC50)), 2.1 ± 0.006 µM; in the experiment on Suit-2 cells (Homo sapiens, Suit-2, 72 h, mean ± SEM, read-out: Half-maximal inhibitory concentration (IC50)), 1.4 ± 0.74 µM.
